# Patent US9266871B2, “Trifluoromethyl-substituted fused pyrimidines and their use” (BAYER PHARMA AKTIENGESELLSCHAFT, priority 2013, dated 2016)
# Target: T1, bovine PDE 6 (Bos taurus, UniProt P11541+P23439)
# T1 construct: from tissue; host or cells: bovine retina, photoreceptor outer segments (ROS)
# T1 sequence (P11541 2-856 limits assumed): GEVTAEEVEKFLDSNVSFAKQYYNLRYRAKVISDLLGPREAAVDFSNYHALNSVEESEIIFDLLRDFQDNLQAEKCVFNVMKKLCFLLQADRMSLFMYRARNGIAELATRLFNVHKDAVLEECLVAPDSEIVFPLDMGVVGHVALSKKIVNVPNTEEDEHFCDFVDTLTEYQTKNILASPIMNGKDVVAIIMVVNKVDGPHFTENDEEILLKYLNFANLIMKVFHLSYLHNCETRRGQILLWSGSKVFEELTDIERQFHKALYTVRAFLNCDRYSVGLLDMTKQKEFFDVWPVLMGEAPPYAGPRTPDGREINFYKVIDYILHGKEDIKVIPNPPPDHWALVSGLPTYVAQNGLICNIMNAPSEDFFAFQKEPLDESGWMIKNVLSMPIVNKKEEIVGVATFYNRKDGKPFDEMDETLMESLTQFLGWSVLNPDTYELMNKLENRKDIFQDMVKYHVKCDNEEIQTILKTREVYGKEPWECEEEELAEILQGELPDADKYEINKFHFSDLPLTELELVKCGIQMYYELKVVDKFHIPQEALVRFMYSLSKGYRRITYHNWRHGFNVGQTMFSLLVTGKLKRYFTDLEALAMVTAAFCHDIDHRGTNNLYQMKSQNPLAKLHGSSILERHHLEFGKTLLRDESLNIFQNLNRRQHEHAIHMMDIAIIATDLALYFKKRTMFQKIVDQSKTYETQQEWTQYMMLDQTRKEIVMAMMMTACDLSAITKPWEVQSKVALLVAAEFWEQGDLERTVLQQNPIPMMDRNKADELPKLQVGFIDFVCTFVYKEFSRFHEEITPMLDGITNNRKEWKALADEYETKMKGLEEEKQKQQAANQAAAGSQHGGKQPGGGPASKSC
# T1 sequence (P23439 2-850 limits assumed): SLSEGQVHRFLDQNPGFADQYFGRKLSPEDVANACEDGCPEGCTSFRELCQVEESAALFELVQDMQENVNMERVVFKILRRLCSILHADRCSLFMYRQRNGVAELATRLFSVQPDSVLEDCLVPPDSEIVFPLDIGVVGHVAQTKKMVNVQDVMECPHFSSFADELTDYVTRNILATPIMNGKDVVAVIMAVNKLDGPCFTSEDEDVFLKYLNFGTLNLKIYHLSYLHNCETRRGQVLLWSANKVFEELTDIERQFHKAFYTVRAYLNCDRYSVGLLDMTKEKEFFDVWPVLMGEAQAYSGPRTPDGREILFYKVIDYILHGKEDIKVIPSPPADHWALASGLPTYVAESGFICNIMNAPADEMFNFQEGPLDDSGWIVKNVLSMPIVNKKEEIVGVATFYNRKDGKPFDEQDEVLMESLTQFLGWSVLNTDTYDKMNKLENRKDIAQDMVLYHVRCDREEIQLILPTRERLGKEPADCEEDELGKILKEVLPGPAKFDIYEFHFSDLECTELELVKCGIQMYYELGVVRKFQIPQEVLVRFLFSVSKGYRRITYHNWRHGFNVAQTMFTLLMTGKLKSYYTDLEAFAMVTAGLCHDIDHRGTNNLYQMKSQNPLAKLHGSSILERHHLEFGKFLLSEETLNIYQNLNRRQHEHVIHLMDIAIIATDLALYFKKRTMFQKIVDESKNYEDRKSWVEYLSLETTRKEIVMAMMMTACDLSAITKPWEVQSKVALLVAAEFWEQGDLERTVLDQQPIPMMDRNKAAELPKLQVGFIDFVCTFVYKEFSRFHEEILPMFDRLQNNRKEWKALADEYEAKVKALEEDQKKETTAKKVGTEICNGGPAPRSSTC
# Assay: Inhibition of bovine phosphodiesterase 6 (PDE 6), 3H-cGMP SPA
# Type: biochemical
# Settings: bovine PDE 6 inhibition
# Procedure: B-6. Inhibition of Bovine Phosphodiesterase 6 (PDE 6)
# PDE 6 is purified from external photoreceptor segments of bovine retina (ROS), activated by mild trypsination and purified further by ion exchange chromatography using a Mono Q column. Fractions having PDE 6 activity are combined (PDE 6 preparation) and stored at −80° (I. Saenz de Tejada et al., International Journal of Impotence Research 2001, 13, 282-290). The in vitro effect of test substances on bovine PDE 6 is determined using the commercially available 3H-cGMP Scintillation Proximity Assay (SPA) from Perkin Elmer. The reaction ([…], 37° C.) comprises serial dilution series of the test substances in DMSO and PDE 6 preparation (typical dilution 1:100,000), [8^−3H]guanosine 3′,5′-cyclic phosphate (0.25 μCi/mL; Perkin Elmer) and unlabelled cGMP (10 μM) in assay buffer (50 mM Tris/HCl pH 7.5; 140 mM NaCl; 8.3 mM MgCl2; 1.7 mM EDTA; 0.02% BSA). IC50 values are determined by plotting the substance concentration against the percent PDE 6 inhibition determined (Wunder et al. Molecular Pharmacology 2005, 68, 1775-1781).
row,IC50,Structure (SMILES)
1,220 nM,"C[C@@]1(C(F)(F)F)C(=O)Nc2nc(-c3nn(Cc4ncccc4F)c4ncc(F)cc34)nc(NCCC(F)(F)F)c21 (single isomer, unassigned) [Example 1-1]"
2,1400 nM,"C[C@]1(C(F)(F)F)C(=O)Nc2nc(-c3nn(Cc4ncccc4F)c4ncc(F)cc34)nc(NCCC(F)(F)F)c21 (single isomer, unassigned) [Example 1-2]"
